Experimental data published in patent US6903104B2, “Indol-3-YL-2-oxoacetamide compounds and methods of use thereof” (National Health Research Institutes, priority 2001, dated 2005).

Columns and labels:
[1] = test system: colorectal DLD1 cancer cells; experiment: In vitro cytotoxicity MTS assay, colorectal DLD1; type: cell-based, human; conditions: 72 hours
Protocol: (§1) A panel of human cancer cells, gastric NUGC3 and HR, nasopharyngeal HONE1, hepatocellular HEP G2 and HA-22T, colorectal DLD1, lung A549, prostate PC3, breast MCF7 and its adriamycin-resistant MCF7/ADR subline, uterus MES-SA and its adriamycin-resistant MES-SA/Dx5 subline, is purchased from Food Industry Research and Development Institute, Hsinchu, Taiwan R.O.C. or American Type Culture Collection, Manassas, Va. U.S.A., are used in in vitro cytotoxicity assays. The human cells are seeded at a cell density of 3000 or 4500 cells/100 μl/well in 96-well flat-bottom plates and incubated for 24 hours at 37° C. in a 5% CO2 incubator. The testing compounds are dissolved in dimethyl sulfoxide (DMSO) and further diluted into the culture medium for treatments of human cancer cells in vitro. The drug-containing media has a final DMSO concentration of ≦0.3%. The compounds of this invention are prepared in culture media for testing at a range of concentrations from 10, 1, 0.1, 0.01 to 0.001 μM. Each compound solution is (200 μl/well in duplicate) in the cell plates and is treated for 72 hours at 37° C., 5% CO2 in an incubator. Actinomycin D at 5 μM and 0.3% DMSO are used as the positive and vehicle controls, respectively. A colorimetric assay using 3-(4,5-dimethylthiazol-2-yl)-5-(3-carboxymethoxyphenyl)-2-(4-sulfophenyl)-2H-tetrazolium (MTS) and phenazine methosulfate (PMS) is used to determine the potency of the compounds. This assay measures cell viability based on the cellular activity in conversion of a tetrazolium salt into a colored soluble formazan product. The optical density (OD) values are measured at 490 nm with a 1420 multilabel counter VICTOR® from Wallac, Turku, Finland. All of the measured values are subtracted with that of the blank control wells without cells before further calculations. The efficacy data are expressed as a percentage normalized to the vehicle controls as calculated in the following formulae. Inhibitory potency (% of vehicle control)=[(OD490compound−OD490blank)/(OD490vehicle−OD490blank)]×100%. The concentration (IC50) of a test compound that inhibits 50% of the cellular activity is determined.

[2] = test system: hepatocellular HA-22T cancer cells; experiment: In vitro cytotoxicity MTS assay, hepatocellular HA-22T; type: cell-based, human; conditions: 72 hours
Protocol: as §1

[3] = test system: hepatocellular HEP G2 cancer cells; experiment: In vitro cytotoxicity MTS assay, hepatocellular HEP G2; type: cell-based, human; conditions: 72 hours
Protocol: as §1

[4] = test system: nasopharyngeal HONE1 cancer cells; experiment: In vitro cytotoxicity MTS assay, nasopharyngeal HONE1; type: cell-based, human; conditions: 72 hours
Protocol: as §1

gastric HR cancer cells = experiment: In vitro cytotoxicity MTS assay, gastric HR; type: cell-based, human; conditions: 72 hours
Protocol: as §1

[5] = test system: gastric NUGC3 cancer cells; experiment: In vitro cytotoxicity MTS assay, gastric NUGC3; type: cell-based, human; conditions: 72 hours
Protocol: as §1

lung A549 cancer cells = experiment: In vitro cytotoxicity MTS assay, lung A549; type: cell-based, human; conditions: 72 hours
Protocol: as §1

[6] = test system: prostate PC3 cancer cells; experiment: In vitro cytotoxicity MTS assay, prostate PC3; type: cell-based, human; conditions: 72 hours
Protocol: as §1

breast MCF7 cancer cells = experiment: In vitro cytotoxicity MTS assay, breast MCF7; type: cell-based, human; conditions: 72 hours
Protocol: as §1

[7] = test system: adriamycin-resistant MCF7/ADR subline; experiment: In vitro cytotoxicity MTS assay, adriamycin-resistant MCF7/ADR; type: cell-based, human; conditions: 72 hours
Protocol: as §1

[8] = test system: uterus MES-SA cancer cells; experiment: In vitro cytotoxicity MTS assay, uterus MES-SA; type: cell-based, human; conditions: 72 hours
Protocol: as §1

[9] = test system: adriamycin-resistant MES-SA/Dx5 subline; experiment: In vitro cytotoxicity MTS assay, adriamycin-resistant MES-SA/Dx5; type: cell-based, human; conditions: 72 hours
Protocol: as §1

[10] = test system: rat aorta endothelial cells; experiment: Rat aorta tube formation assay (angiogenesis inhibition); type: cell-based, Spraque-Dawley rats; design: key: Noninhibitors are indicated by the symbol (−), meaning that the extent of endothelial cell growth is essentially at the same level as that of the control; The most potent inhibitors receive a score of (+++++), indicating essentially no measurable endothelial cell growth; conditions: final conc. 0.3 μg/ml, 5 days
Protocol: The procedures are modified from previous reports (Burbridge and West 2001; Bauer et al. 2000; Nicosai and Ottinetti 1990a) and described as follows. Male Spraque-Dawley rats of 6-8 weeks old are purchased from the National Laboratory Animal Breeding and Research Center (Taipei, Taiwan). The animals are anesthetized with urethane (2 g/kg, intraperitoneal) and the thoracic aortas are quickly harvested in a laminar flow hood. The aortas are rinsed with ice-cold normal saline with 10 μg/ml gentamicin and the attached fibroadipose tissues are removed using micro-dissection scissors. The aortas are cross-sectioned into rings of 1 mm in thickness. A mixture of Matrigel®, purchased from BD Biosciences, solution and the EBM-II medium, purchased from BioWhittaker Inc., (1:1) with 2% FBS, 0.25 mg/ml, amphotericin B and 10 μg/ml gentamicin is prepared and added at 100 μl to each well of a 48-well plate. The mixture is allowed to gel at 37° C. Aorta rings are then placed onto the gelled matrix and embedded in an additional 150 μl per well of the mixture solution and allowed to gel at 37° C. The aorta rings are then covered with 125 μl of the EGM-II medium and incubated overnight in humidified incubator with 5% CO2/95% air at 37° C. After removal of the EGM-II from the established aorta cultures, the compound-containing media are applied at 300 μl per well to the cultures and then incubated in 5% CO2/95% air at 37° C. for 5 days. The cultures are then subject to the 3-[4,5-dimethylthiazol-2-yl]-2,5 diphenyl-2H-tetrazolium bromide (MTT) or 3-(4,5-dimethylthiazol-2-yl)-5-(3-carbomethoxyphenyl)-2H-tetrazolium (MTS) assay and OD490 nm values measured. The testing compounds are dissolved in dimethyl sulfoxide (DMSO) and prepared in EBM-II media with at a final concentration of DMSO less than 0.1%.
The capillary-like, tube structure of the outgrown rat aorta endothelial cells is easily visualized by MTT staining. The medium on top of the matrix is removed from the established aorta ring cultures. MTT solution of 5 mg/ml in saline is added to the cultures at 100 μl/well and the cultures are incubated in a CO2 incubator at 37° C. for 24 hr. The stained cultures are then examined under a microscope DMIRB from Leica and photos taken with a digital camera.
Inhibition activity is also assessed in the following manner. The reductive reaction of MTS initiated by the viable cellular mitochondrial activity is used as a basis for the measurement of cell viability (Cory et al. 1991; Gieni et al. 1995). To the rat aorta ring cultures 300 μl of a solution containing 100 μg MTS and 1 μg, phenazine methosulfate is added per well and incubated in 5% CO2/95% air at 37° C. for 24 hr. During the incubation, MTS is converted to formazan product. At the end of incubation, the solution overlaying the gel is well-mixed and 100 μl aliquots are transferred into a 96-well plate for measurement of OD490 nm with a spectrophotometer VICTOR™-II from Wallac Oy.
The compounds listed in Table 3 are screened for angiogenesis inhibition. The control compound, ASTA, is D-24851, N-[pyridin-4-yl]-[1-(4-chlorobenzyl)-indol-3-yl]-glyoxylic acid amide. Noninhibitors are indicated by the symbol (−), meaning that the extent of endothelial cell growth is essentially at the same level as that of the control.

Structure (SMILES)	IC50 [1] [nM]	IC50 [2] [nM]	IC50 [3] [nM]	IC50 [4] [nM]	IC50 (gastric HR cancer cells) [nM]	IC50 [5] [nM]	IC50 (lung A549 cancer cells) [nM]	IC50 [6] [nM]	IC50 (breast MCF7 cancer cells) [nM]	IC50 [7] [nM]	IC50 [8] [nM]	IC50 [9] [nM]	Inhibition Score [10]
CCc1cc(Cn2cc(C(=O)C(=O)Nc3cc(C)ns3)c3ccccc32)on1 [Compound 63]	705	559	2470	35	78	118	1000	636	747	5070	312	330	+++++
Cc1cc(NC(=O)C(=O)c2cn(Cc3ccsc3)c3ccccc23)sn1 [Compound 45]	593	2400	1690	48	316	465	611	824	611	2350	306	406	+++++
Cc1cc(NC(=O)C(=O)c2cn(Cc3ccno3)c3ccccc23)sn1 [Compound 54]	397	382	> 10000	17	64	27	1670	725	5020	5410	268	333	+++++
Cc1cc(NC(=O)C(=O)c2cn(Cc3ccco3)c3ccccc23)sn1 [Compound 40]	981	1260	7720	56	295	395	746	398	1160	1170	235	263	+++++
N#Cc1ccc(Cn2cc(C(=O)C(=O)Nc3ccc4ncccc4c3)c3ccccc32)cc1 [Compound 3]	665	510	383	174	266	279	6400	9630	640	665	4710	6090	+++++
N#Cc1ccc(Cn2cc(C(=O)C(=O)Nc3ccc(I)cc3)c3ccccc32)cc1 [Compound 13]	846	356	6310	98	396	431			577	597			+++++
